According to patent US20090018134A1, “Compounds - 945” (AstraZeneca AB, priority 2007, published 2009):

What follows are compounds tested against T1, mTOR (Homo sapiens, UniProt P42345) (assay: In Vitro mTOR Kinase Assay (Echo), Test (a)(ii)). Conditions: table of enzyme assay Test (a)(ii); read-out: Test (a)(ii) IC50.
T1 construct: FLAG; made in house
Type: biochemical
How it was run: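 Enzyme: HEK293-expressed, FLAG-purified mTOR C-terminal fragment (aa 1362-2549). Rxn 2 h RT with biotinylated peptide, stopped with EDTA 50 mM/BSA/Tris pH 7.4. Detection: T389 phospho-antibody AlphaScreen, 680 nm excitation. IC50.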

T1 sequence (P42345 1362-2549): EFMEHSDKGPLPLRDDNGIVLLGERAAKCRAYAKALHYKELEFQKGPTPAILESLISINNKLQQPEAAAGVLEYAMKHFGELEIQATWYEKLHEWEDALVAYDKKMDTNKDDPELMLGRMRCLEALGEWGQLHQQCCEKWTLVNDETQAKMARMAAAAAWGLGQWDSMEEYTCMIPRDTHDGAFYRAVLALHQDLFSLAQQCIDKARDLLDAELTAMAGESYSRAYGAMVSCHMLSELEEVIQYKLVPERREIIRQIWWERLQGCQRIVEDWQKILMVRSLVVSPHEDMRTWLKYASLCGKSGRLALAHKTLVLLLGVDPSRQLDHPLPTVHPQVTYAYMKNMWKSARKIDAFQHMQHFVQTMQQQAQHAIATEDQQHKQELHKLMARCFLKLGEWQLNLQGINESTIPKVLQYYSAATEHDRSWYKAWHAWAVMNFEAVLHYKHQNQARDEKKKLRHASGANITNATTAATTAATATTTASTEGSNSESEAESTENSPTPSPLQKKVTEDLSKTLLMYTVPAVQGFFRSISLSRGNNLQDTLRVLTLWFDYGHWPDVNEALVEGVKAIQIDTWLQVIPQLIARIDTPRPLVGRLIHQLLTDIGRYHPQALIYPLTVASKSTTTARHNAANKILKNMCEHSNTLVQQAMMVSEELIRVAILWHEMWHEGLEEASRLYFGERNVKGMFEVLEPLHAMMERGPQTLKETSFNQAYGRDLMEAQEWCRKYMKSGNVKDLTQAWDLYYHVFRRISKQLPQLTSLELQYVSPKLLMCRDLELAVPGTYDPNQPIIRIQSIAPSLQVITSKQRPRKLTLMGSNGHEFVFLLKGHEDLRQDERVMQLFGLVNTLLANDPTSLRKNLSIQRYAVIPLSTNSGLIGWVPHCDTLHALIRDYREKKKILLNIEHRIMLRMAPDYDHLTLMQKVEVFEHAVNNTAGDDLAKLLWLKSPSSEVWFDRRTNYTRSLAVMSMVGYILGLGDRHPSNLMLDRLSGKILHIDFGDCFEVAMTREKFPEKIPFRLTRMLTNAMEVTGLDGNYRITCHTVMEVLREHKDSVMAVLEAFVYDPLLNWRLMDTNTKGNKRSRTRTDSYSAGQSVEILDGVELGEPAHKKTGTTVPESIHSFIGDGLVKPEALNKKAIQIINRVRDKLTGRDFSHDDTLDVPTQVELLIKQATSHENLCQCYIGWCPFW

| Compound | IC50 [nM] |
| --- | --- |
| C[C@H]1COCCN1c1cc(C2(S(=O)(=O)c3ccc(C#N)cc3Cl)CC2)nc(-c2ccc(NC(=O)NCCF)cc2)n1 [Example 85i, 1-[4-[4-[1-(2-chloro-4-cyanophenyl)sulfonylcyclopropyl]-6-[(3S)-3-methylmorpholin-4-yl]pyrimidin-2-yl]phenyl]-3-(2-fluoroethyl)urea] | 15.3 |
| C[C@H]1COCCN1c1cc(C2(S(=O)(=O)c3ccc(C#N)cc3Cl)CC2)nc(-c2ccc(NC(=O)NCCO)cc2)n1 [Example 85j, 1-[4-[4-[1-(2-chloro-4-cyanophenyl)sulfonylcyclopropyl]-6-[(3S)-3-methylmorpholin-4-yl]pyrimidin-2-yl]phenyl]-3-(2-hydroxyethyl)urea] | 12.4 |
| CNC(=O)Nc1ccc(-c2nc(N3CCOC[C@@H]3C)cc(C3(S(=O)(=O)c4c(F)cccc4F)CC3)n2)cc1 [Example 86, 1-[4-[4-[1-(2,6-Difluorophenyl)sulfonylcyclopropyl]-6-[(3S)-3-methylmorpholin-4-yl]pyrimidin-2-,yl]phenyl]-3-methylurea] | 2.47 |
| CCNC(=O)Nc1ccc(-c2nc(N3CCOC[C@@H]3C)cc(C3(S(=O)(=O)c4c(F)cccc4F)CC3)n2)cc1 [Example 86a, 1-[4-[4-[1-(2,6-difluorophenyl)sulfonylcyclopropyl]-6-[(3S)-3-methylmorpholin-4-yl]pyrimidin-2-yl]phenyl]-3-ethylurea] | 5.22 |
| C[C@H]1COCCN1c1cc(C2(S(=O)(=O)c3c(F)cccc3F)CC2)nc(-c2ccc(NC(=O)NC3CC3)cc2)n1 [Example 86b, 3-cyclopropyl-1-[4-[4-[1-(2,6-difluorophenyl)sulfonylcyclopropyl]-6-[(3S)-3-methylmorpholin-4-yl]pyrimidin-2-yl]phenyl]urea] | 7.25 |
| C[C@H]1COCCN1c1cc(C2(S(=O)(=O)c3c(F)cccc3F)CC2)nc(-c2ccc(NC(=O)NCCO)cc2)n1 [Example 86c, 1-[4-[4-[1-(2,6-difluorophenyl)sulfonylcyclopropyl]-6-[(3S)-3-methylmorpholin-4-yl]pyrimidin-2-yl]phenyl]-3-(2-hydroxyethyl)urea] | 2.47 |
| C[C@H]1COCCN1c1cc(C2(S(=O)(=O)c3c(F)cccc3F)CC2)nc(-c2ccc(NC(=O)NCCF)cc2)n1 [Example 86d, 1-[4-[4-[1-(2,6-difluorophenyl)sulfonylcyclopropyl]-6-[(3S)-3-methylmorpholin-4-yl]pyrimidin-2-yl]phenyl]-3-(2-fluoroethyl)urea] | 3.82 |
| C[C@H]1COCCN1c1cc(C2(S(=O)(=O)c3c(F)cccc3F)CC2)nc(-c2ccc(NC(=O)NCC(F)F)cc2)n1 [Example 86e, 3-(2,2-difluoroethyl)-1-[4-[4-[1-(2,6-difluorophenyl)sulfonylcyclopropyl]-6-[(3S)-3-methylmorpholin-4-yl]pyrimidin-2-yl]phenyl]urea] | 2.23 |
| C[C@H]1COCCN1c1cc(C2(S(=O)(=O)c3c(F)cccc3F)CC2)nc(-c2ccc(NC(=O)Nc3cnn(C)c3)cc2)n1 [Example 86f, 1-[4-[4-[1-(2,6-difluorophenyl)sulfonylcyclopropyl]-6-[(3S)-3-methylmorpholin-4-yl]pyrimidin-2-yl]phenyl]-3-(1-methylpyrazol-4-yl)urea] | 3.45 |
| CCS(=O)(=O)C1(c2cc(N3CCOC[C@@H]3C)nc(-c3ccc(NC(=O)NCCO)cc3)n2)CCC1 [Example 87, 1-[4-[4-(1-Ethylsulfonylcyclobutyl)-6-[(3S)-3-methylmorpholin-4-yl]pyrimidin-2-yl]phenyl]-3-(2-hydroxyethyl)urea] | 4.87 |
| CCS(=O)(=O)C1(c2cc(N3CCOC[C@@H]3C)nc(-c3ccc(NC(=O)NCc4ncc[nH]4)cc3)n2)CCC1 [Example 87a, 1-[4-[4-(1-ethylsulfonylcyclobutyl)-6-[(3S)-3-methylmorpholin-4-yl]pyrimidin-2-yl]phenyl]-3-(1H-imidazol-2-ylmethyl)urea] | 88.7 |
| CCS(=O)(=O)C1(c2cc(N3CCOC[C@@H]3C)nc(-c3ccc(NC(=O)NCCCO)cc3)n2)CCC1 [Example 87b, 1-[4-[4-(1-ethylsulfonylcyclobutyl)-6-[(3S)-3-methylmorpholin-4-yl]pyrimidin-2-yl]phenyl]-3-(3-hydroxypropyl)urea] | 17.7 |
| CCS(=O)(=O)C1(c2cc(N3CCOC[C@@H]3C)nc(-c3ccc(NC(=O)NC)cc3)n2)CCC1 [Example 87c, 1-[4-[4-(1-ethylsulfonylcyclobutyl)-6-[(3S)-3-methylmorpholin-4-yl]pyrimidin-2-yl]phenyl]-3-methylurea] | 7.75 |
| CCS(=O)(=O)C1(c2cc(N3CCOC[C@@H]3C)nc(-c3ccc(NC(=O)NC(C)(C)CO)cc3)n2)CCC1 [Example 87d, 1-[4-[4-(1-ethylsulfonylcyclobutyl)-6-[(3S)-3-methylmorpholin-4-yl]pyrimidin-2-yl]phenyl]-3-(1-hydroxy-2-methylpropan-2-yl)urea] | 17.7 |
| CCS(=O)(=O)C1(c2cc(N3CCOC[C@@H]3C)nc(-c3ccc(NC(=O)N[C@@H](C)CO)cc3)n2)CCC1 [Example 87e, 1-[4-[4-(1-ethylsulfonylcyclobutyl)-6-[(3S)-3-methylmorpholin-4-yl]pyrimidin-2-yl]phenyl]-3-[(2S)-1-hydroxypropan-2-yl]urea] | 10.3 |
| CCS(=O)(=O)C1(c2cc(N3CCOC[C@@H]3C)nc(-c3ccc(NC(=O)N[C@H](C)CO)cc3)n2)CCC1 [Example 87f, 1-[4-[4-(1-ethylsulfonylcyclobutyl)-6-[(3S)-3-methylmorpholin-4-yl]pyrimidin-2-yl]phenyl]-3-[(2R)-1-hydroxypropan-2-yl]urea] | 9.07 |
| CCS(=O)(=O)C1(c2cc(N3CCOC[C@@H]3C)nc(-c3ccc(NC(=S)NCCCO)cc3)n2)CCC1 [Example 88, 1-[4-[4-(1-Ethylsulfonylcyclobutyl)-6-[(3S)-3-methylmorpholin-4-yl]pyrimidin-2-yl]phenyl]-3-(3-hydroxypropyl)thiourea] | 32.1 |
| CCS(=O)(=O)C1(c2cc(N3CCOC[C@@H]3C)nc(-c3ccc(NC(=S)NCCO)cc3)n2)CCC1 [Example 88a, 1-[4-[4-(1-ethylsulfonylcyclobutyl)-6-[(3S)-3-methylmorpholin-4-yl]pyrimidin-2-yl]phenyl]-3-(2-hydroxyethyl)thiourea] | 4.48 |
| CCS(=O)(=O)C1(c2cc(N3CCOC[C@@H]3C)nc(-c3ccc(NC(=S)NCc4ncc[nH]4)cc3)n2)CCC1 [Example 88b, 1-[4-[4-(1-ethylsulfonylcyclobutyl)-6-[(3S)-3-methylmorpholin-4-yl]pyrimidin-2-yl]phenyl]-3-(1H-imidazol-2-ylmethyl)thiourea] | 56.7 |
| CCS(=O)(=O)C1(c2cc(N3CCOC[C@@H]3C)nc(-c3ccc(NC(=S)NCCCO)cc3)n2)CC1 [Example 88c, 1-[4-[4-(1-ethylsulfonylcyclopropyl)-6-[(3S)-3-methylmorpholin-4-yl]pyrimidin-2-yl]phenyl]-3-(3-hydroxypropyl)thiourea] | 47 |
| CCS(=O)(=O)C1(c2cc(N3CCOC[C@@H]3C)nc(-c3ccc(NC(=S)NCCO)cc3)n2)CC1 [Example 88d, 1-[4-[4-(1-ethylsulfonylcyclopropyl)-6-[(3S)-3-methylmorpholin-4-yl]pyrimidin-2-yl]phenyl]-3-(2-hydroxyethyl)thiourea] | 4 |
| CCNC(=O)Nc1ccc(-c2nc(N3CCOCC3C(N)=O)cc(C3(S(=O)(=O)c4ccccc4)CC3)n2)cc1 (centres unmarked) [Example 89, 4-[6-[1-(Benzenesulfonyl)cyclopropyl]-2-[4-(ethylcarbamoylamino)phenyl]pyrimidin-4-yl]morpholine-3-carboxamide] | 485 |
| CCNC(=O)Nc1ccc(-c2nc(N3CCOCC3C(=O)N(C)C)cc(C3(S(=O)(=O)c4ccccc4)CC3)n2)cc1 (centres unmarked) [Example 90, 4-[6-[1-(Benzenesulfonyl)cyclopropyl]-2-[4-(ethylcarbamoylamino)phenyl]pyrimidin-4-yl]-N,N-dimethylmorpholine-3-carboxamide] | 18.9 |
| C[C@H]1COC[C@H](C)N1c1cc(C2(S(C)(=O)=O)CC2)nc(-c2ccc(NC(=O)NC3CC3)cc2)n1 [Example 91, 3-Cyclopropyl-1-[4-[4-[(3S,5S)-3,5-dimethylmorpholin-4-yl]-6-(1-methylsulfonylyclopropyl)pyrimidin-2-yl]phenyl]urea] | 4.98 |
| CNC(=O)Nc1ccc(-c2nc(N3[C@@H](C)COC[C@@H]3C)cc(C3(S(C)(=O)=O)CC3)n2)cc1 [Example 91a, 1-[4-[4-[(3S,5S)-3,5-dimethylmorpholin-4-yl]-6-(1-methylsulfonylcyclopropyl)pyrimidin-2-yl]phenyl]-3-methylurea] | 1.98 |
| CCNC(=O)Nc1ccc(-c2nc(N3[C@@H](C)COC[C@@H]3C)cc(C3(S(C)(=O)=O)CC3)n2)cc1 [Example 91b, 1-[4-[4-[(3S,5S)-3,5-dimethylmorpholin-4-yl]-6-(1-methylsulfonylcyclopropyl)pyrimidin-2-yl]phenyl]-3-ethylurea] | 5.21 |
| C[C@H]1COC[C@H](C)N1c1cc(C2(S(C)(=O)=O)CC2)nc(-c2ccc(NC(=O)NCCF)cc2)n1 [Example 91c, 1-[4-[4-[(3S,5S)-3,5-dimethylmorpholin-4-yl]-6-(1-methylsulfonylcyclopropyl)pyrimidin-2-yl]phenyl]-3-(2-fluoroethyl)urea] | 3.68 |
| C[C@H]1COC[C@H](C)N1c1cc(C2(S(C)(=O)=O)CC2)nc(-c2ccc(NC(=O)NCCO)cc2)n1 [Example 91d, 1-[4-[4-[(3S,5S)-3,5-dimethylmorpholin-4-yl]-6-(1-methylsulfonylcyclopropyl)pyrimidin-2-yl]phenyl]-3-(2-hydroxyethyl)urea] | 3.56 |
| C[C@H]1COC[C@H](C)N1c1cc(C2(S(=O)(=O)C3CC3)CC2)nc(-c2ccc(NC(=O)NC3CC3)cc2)n1 [Example 92, 3-Cyclopropyl-1-[4-[4-(1-cyclopropylsulfonylcyclopropyl)-6-[(3S,5S)-3,5-dimethylmorpholin-4-yl]pyrimidin-2-yl]phenyl]urea] | 7.93 |
